According to US10800792B2, “Inhibitors of Bruton's tyrosine kinase and method of their use” (JANSSEN PHARMACEUTICA NV, priority 2015, dated 2020):

Target: unphosphorylated-BTK kinase domain (UP-BTK), GST-tagged human BTK (389-659aa) (Homo sapiens (Human), UniProt Q06187)
Assay: BTK kinase Lanthascreen binding assay
Conditions: Lanthascreen tracer competition, 60 minutes incubation, pIC50 = negative log of the IC50 in molar; for IC50: read-out: BTK_I_binding pIC50 (converted)
Method in brief: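 A fluorescent tracer is bound to unphosphorylated BTK; test compound is added to compete it off; the Lanthascreen signal is read and IC50 is fitted, then reported as its negative log in molar.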

unphosphorylated-BTK kinase domain (UP-BTK), GST-tagged human BTK (389-659aa), sequence (Q06187 389-659): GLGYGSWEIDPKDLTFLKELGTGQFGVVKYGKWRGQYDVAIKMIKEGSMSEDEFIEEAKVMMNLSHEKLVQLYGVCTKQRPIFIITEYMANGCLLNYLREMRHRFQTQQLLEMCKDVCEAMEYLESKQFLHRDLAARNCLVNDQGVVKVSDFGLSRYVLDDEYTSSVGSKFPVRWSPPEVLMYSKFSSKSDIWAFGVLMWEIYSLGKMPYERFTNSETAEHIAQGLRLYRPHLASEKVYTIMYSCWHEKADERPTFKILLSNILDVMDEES

| BTK_I_binding pIC50 | IC50 [µM] | Compound |
| --- | --- | --- |
| <6 |  | O=C(N[C@@H]1CCCNC1)c1sc2nccc3c2c1NC(=O)N3c1cccc(-c2ccccc2)n1 [Example 623, (R)-4-Oxo-5-(6-phenylpyridin-2-yl)-N-(piperidin-3-yl)-4,5-dihydro-3H-1-thia-3,5,8-triazaacenaphthylene-2-carboxamide] |
| 5.9 |  | CC(C)(C)OC(=O)N1C[C@H](NC(=O)c2sc3nccc4c3c2NC(=O)N4c2ccc(Oc3ccccc3)cc2)[C@@H](F)C1 [Example 625, (3S,4S)-tert-Butyl 3-fluoro-4-(4-oxo-5-(4-phenoxyphenyl)-4,5-dihydro-3H-1-thia-3,5,8-triazaacenaphthylene-2-carboxamido)pyrrolidine-1-carboxylate] |
| 5.9 |  | CC(C)(C)OC(=O)N1CCC(NC(=O)c2sc3nccc4c3c2NC(=O)N4c2ccc(Oc3ccccc3)cc2)CC1 [Example 627, tert-Butyl 4-(4-oxo-5-(4-phenoxyphenyl)-4,5-dihydro-3H-1-thia-3,5,8-triazaacenaphthylene-2-carboxamido)piperidine-1-carboxylate] |
| 5.8 |  | CC(C)(C)OC(=O)N1CCC[C@@H](NC(=O)c2sc3nccc4c3c2NC(=O)N4c2ccc(Oc3ccccc3)cc2)C1 [Example 628, (R)-tert-Butyl 3-(4-oxo-5-(4-phenoxyphenyl)-4,5-dihydro-3H-1-thia-3,5,8-triazaacenaphthylene-2-carboxamido)piperidine-1-carboxylate] |
|  | 1.26 | O=C(N[C@@H]1CCCNC1)c1sc2nccc3c2c1NC(=O)N3c1cccc(C2CCCCC2)c1 [Example 629, (R)-5-(3-Cyclohexylphenyl)-4-oxo-N-(piperidin-3-yl)-4,5-dihydro-3H-1-thia-3,5,8-triazaacenaphthylene-2-carboxamide] |
| 5.9 |  | CC(C)c1cccc(N2C(=O)Nc3c(C(=O)N[C@@H]4CCCNC4)sc4nccc2c34)c1 [Example 630, (R)-5-(3-Isopropylphenyl)-4-oxo-N-(piperidin-3-yl)-4,5-dihydro-3H-1-thia-3,5,8-triazaacenaphthylene-2-carboxamide] |
| 5.9 |  | C=CC(=O)N1CCC[C@@H](NC(=O)c2sc3nccc4c3c2NC(=O)N4c2cccc(-c3ccncc3)c2)C1 [Example 631, (R)—N-(1-Acryloylpiperidin-3-yl)-4-oxo-5-(3-(pyridin-4-yl)phenyl)-4,5-dihydro-3H-1-thia-3,58-triazaacenaphthylene-2-carboxamide] |
| 5.9 |  | C=CC(=O)N1CCC[C@@H](NC(=O)c2sc3nccc4c3c2NC(=O)N4c2cccc(C3COC3)c2)C1 [Example 632, (R)—N-(1-Acryloylpiperidin-3-yl)-5-(3-(oxetan-3-yl)phenyl)-4-oxo-4,5-dihydro-3H-1-thia-3,5,8-triazaacenaphthylene-2-carboxamide] |
| 5.8 |  | C=CC(=O)N1CCC[C@@H](NC(=O)c2sc3nccc4c3c2NC(=O)N4c2ccc(OC(C)C)c(C)c2)C1 [Example 633, (R)—N-(1-Acryloylpiperidin-3-yl)-5-(4-isopropoxy-3-methylphenyl)-4-oxo-4,5-dihydro-3H-1-thia-3,5,8-triazaacenaphthylene-2-carboxamide] |
| 5.8 |  | O=C(N[C@@H]1CCCNC1)c1sc2nccc3c2c1NC(=O)N3c1ccnc(C2CCC2)c1 [Example 634, (R)-5-(2-Cyclobutylpyridin-4-yl)-4-oxo-N-(piperidin-3-yl)-4,5-dihydro-3H-1-thia-3,5,8-triazaacenaphthylene-2-carboxamide] |
| 5.8 |  | C=CC(=O)N1CCC[C@@H](NC(=O)c2sc3nccc4c3c2NC(=O)N4c2cccc(Oc3ccccc3)n2)C1 [Example 635, (R)—N-(1-Acryloylpiperidin-3-yl)-4-oxo-5-(6-phenoxypyridin-2-yl)-4,5-dihydro-3H-1-thia-3,5,8-triazaacenaphthylene-2-carboxamide] |
| 5.7 |  | O=C(N[C@@H]1CCCNC1)c1sc2nccc3c2c1NC(=O)N3c1ccc2c(c1)OC(F)(F)O2 [Example 636, (R)-5-(2,2-Difluorobenzo[d][1,3]dioxol-5-yl)-4-oxo-N-(piperidin-3-yl)-4,5-dihydro-3H-1-thia-3,5,8-triazaacenaphthylene-2-carboxamide] |
| 5.7 |  | CC(C)Oc1cccc(N2C(=O)Nc3c(C(=O)N[C@@H]4CCCNC4)sc4nccc2c34)c1 [Example 637, (R)-5-(3-Isopropoxyphenyl)-4-oxo-N-(piperidin-3-yl)-4,5-dihydro-3H-1-thia-3,5,8-triazaacenaphthlene-2-carboxamide] |
| 5.7 |  | C=CC(=O)N1CCC[C@@H](NC(=O)c2sc3nccc4c3c2NC(=O)N4c2cccc(C(C)(C)C)c2)C1 [Example 638, (R)—N-(1-Acryloylpiperidin-3-yl)-5-(3-(tert-butyl)phenyl)-4-oxo-4,5-dihydro-3H-1-thia-3,5,8-triazaacenaphthylene-2-carboxamide] |
| 5.7 |  | CO[C@H]1CN(C(=O)OC(C)(C)C)C[C@@H]1NC(=O)c1sc2nccc3c2c1NC(=O)N3c1ccc(Oc2ccccc2)cc1 [Example 639, (3S,4S)-tert-Butyl 3-methoxy-4-(4-oxo-5-(4-phenoxyphenyl)-4,5-dihydro-3H-1-thia-3,5,8-triazaacenaphthylene-2-carboxamido)pyrrolidine-1-carboxylate] |
| 5.6 |  | C=CC(=O)N1CCC[C@@H](NC(=O)c2sc3nccc4c3c2NC(=O)N4c2cc(OC(C)C)ccc2C)C1 [Example 640, (R)—N-(1-Acryloylpiperidin-3-yl)-5-(5-isopropoxy-2-methylphenyl)-4-oxo-4,5-dihydro-3H-1-thia-3,5,8-triazaacenaphthylene-2-carboxamide] |
| 5.6 |  | C=CC(=O)N1CCC[C@@H](NC(=O)c2sc3nccc4c3c2NC(=O)N4c2ccc(S(=O)(=O)C(C)(C)C)cc2)C1 [Example 641, (R)—N-(1-Acryloylpiperidin-3-yl)-5-(4-(tert-butylsulfonyl)phenyl)-4-oxo-4,5-dihydro-3H-1-thia-3,5,8-triazaacenaphthylene-2-carboxamide] |
| 5.3 |  | O=C(N[C@@H]1CCCNC1)c1sc2nccc3c2c1NC(=O)N3c1ccc(O)cc1 [Example 642, (R)-5-(4-Hydroxyphenyl)-4-oxo-N-(piperidin-3-yl)-4,5-dihydro-3H-1-thia-3,5,8-triazaacenaphthylene-2-carboxamide] |
| 5.1 |  | CC(=O)c1cccc(N2C(=O)Nc3c(C(=O)N[C@@H]4CCCNC4)sc4nccc2c34)c1 [Example 643, (R)-5-(3-Acetylphenyl)-4-oxo-N-(piperidin-3-yl)-4,5-dihydro-3H-1-thia-3,5,8-triazaacenaphthylene-2-carboxamide] |
| <5 |  | Cc1ccc(OC(C)C)cc1N1C(=O)Nc2c(C(=O)N[C@@H]3CCCNC3)sc3nccc1c23 [Example 644, (R)-5-(5-Isopropoxy-2-methylphenyl)-4-oxo-N-(piperidin-3-yl)-4,5-dihydro-3H-1-thia-3,5,8-triazaacenaphthylene-2-carboxamide] |
| <5 |  | O=C(N[C@@H]1CCCNC1)c1sc2nccc3c2c1NC(=O)N3c1cccc(Oc2ccccc2)n1 [Example 645, (R)-4-Oxo-5-(6-phenoxypyridin-2-yl)-N-(piperidin-3-yl)-4,5-dihydro-3H-1-thia-3,5,8-triazaacenaphthylene-2-carboxamide] |
| <5 |  | CC(C)(C)c1cccc(N2C(=O)Nc3c(C(=O)N[C@@H]4CCCNC4)sc4nccc2c34)c1 [Example 646, (R)-5-(3-(tert-Butyl)phenyl)-4-oxo-N-(piperidin-3-yl)-4,5-dihydro-3H-1-thia-3,5,8-triazaacenaphthylene-2-carboxamide] |
|  | > 10 | O=C(N[C@@H]1CCCNC1)c1sc2nccc3c2c1NC(=O)N3c1cccc(-c2ccncc2)c1 [Example 647, (R)-4-Oxo-N-(piperidin-3-yl)-5-(3-(pyridin-4-yl)phenyl)-4,5-dihydro-3H-1-thia-3,5,8-triazaacenaphthylene-2-carboxamide] |
| <5 |  | CC(C)(C)OC(=O)N1CCC[C@@H](NC(=O)c2sc3nccc4c3c2NC(=O)N4c2cccc(C(C)(C)C)c2)C1 [Example 648, (R)-tert-Butyl 3-(5-(3-(tert-butyl)phenyl)-4-oxo-4,5-dihydro-3H-1-thia-3,5,8-triazaacenaphthylene-2-carboxamido)piperidine-1-carboxylate] |
| <5 |  | CC(=O)c1cccc(N2C(=O)Nc3c(C(=O)N[C@@H]4CCCN(C(=O)OC(C)(C)C)C4)sc4nccc2c34)c1 [Example 649, (R)-tert-Butyl 3-(5-(3-acetylphenyl)-4-oxo-4,5-dihydro-3H-1-thia-3,5,8-triazaacenaphthylene-2-carboxamido)piperidine-1-carboxylate] |
| <5 |  | CC(C)(C)S(=O)(=O)c1ccc(N2C(=O)Nc3c(C(=O)N[C@@H]4CCCNC4)sc4nccc2c34)cc1 [Example 650, (R)-5-(4-(tert-Butylsulfonyl)phenyl)-4-oxo-N-(piperidin-3-yl)-4,5-dihydro-3H-1-thia-3,5,8-triazaacenaphthylene-2-carboxamide] |
| <5 |  | CC(C)(C)OC(=O)N1CCC[C@@H](NC(=O)c2sc3nccc4c3c2NC(=O)N4c2ccc(S(=O)(=O)C(C)(C)C)cc2)C1 [Example 651, (R)-tert-Butyl 3-(5-(4-(tert-butylsulfonyl)phenyl)-4-oxo-4,5-dihydro-3H-1-thia-3,5,8-triazaacenaphthylene-2-carboxamido)piperidine-1-carboxylate] |

| Compound | BTK_I_binding pIC50 | IC50 [µM] |
| --- | --- | --- |
| O=C(N[C@@H]1CCCNC1)c1sc2nccc3c2c1NC(=O)N3c1ccc(OC2CCC2)cc1 [Example 626, (R)-5-(4-Cyclobutoxyphenyl)-4-oxo-N-(piperidin-3-yl)-4,5-dihydro-3H-1-thia-3,5,8-triazaacenaphthylene-2-carboxamide] |  | 1.26 |
